According to article PMC7587356, “High-Throughput Screening for Inhibitors of the SARS-CoV-2 Protease Using a FRET-Biosensor” (Molecules, 2020):
Where a name gives a salt, the structure may show the parent alone. Read-outs that look alike come from different tables or passages of the source.

Tests used:
SARS-CoV-2 3CLpro [1] = target: T1, SARS-CoV-2 3CLpro (Severe acute respiratory syndrome coronavirus 2, UniProt P0DTD1); experiment: biochemical; assay type: biochemical
SARS-CoV-2 3CLpro [2] = target: T1, SARS-CoV-2 3CLpro; experiment: biochemical; assay type: biochemical; design: Replicate_1 / Replicate_2 / mean / mean (LOPAC_screen_w_protease): unit not given here; details: for inhibition at 5 µM: 4 h
[3] = with 0.01% Triton X-100; mean ± SD of triplicate; 4 h, 30 °C; read-out: A) EC50 with Triton X-100
[4] = without Triton X-100; mean ± SD of triplicate; 4 h, 30 °C; read-out: B) EC50 without Triton X-100
[5] = EC50 with Triton X-100 / EC50 without Triton X-100, ratio greater than 2 suggests aggregation-based inhibitor
[6] = with 0.01% Triton X-100, read-out: EC50
[7] = sheet LOPAC_screen_w_protease, LOPAC1280 primary screen with protease, 5 µM compound, mean of the two replicates
[8] = sheet LOPAC_screen_w_protease, LOPAC1280 primary screen with protease, 5 µM compound, replicate 1
[9] = sheet LOPAC_screen_w_protease, LOPAC1280 primary screen with protease, 5 µM compound, replicate 2
[10] = LOPAC1280 primary screen with protease, 5 µM compound, mean of two replicates

Compound | Ratio (A/B) (SARS-CoV-2 3CLpro [1]) | EC50 (SARS-CoV-2 3CLpro [1]; [3]) [nM] | EC50 (SARS-CoV-2 3CLpro [1]; [4]) [nM] | also measured
CN1CC[C@@]2(C)c3cc(O)ccc3N(C)[C@@H]12 [(−)-Eseroline] | 1.3 | 994 ± 197 | 738 ± 201 | 
C[n+]1cc2c3c(ccc2c2ccc4cc5c(cc4c21)OCO5)OCO3 [Sanguinarine] | 0.8 | 1780 ± 497 | 2240 ± 586 | 
Br.CCCN1CCc2cc(O)cc3c2[C@H]1Cc1ccc(O)c(O)c1-3 [R(−)-2-OH-NPA, R(−)-2,10,11-Trihydroxy-N-propylnoraporphine] |  | 746 ± 91 | 715 ± 133 | Ratio (A/B) (SARS-CoV-2 3CLpro [1]; [5]): 1.0
CN1CCc2cc(O)c(O)cc2C(c2ccccc2)C1 (centres unmarked) [SKF 75670] |  | 17800 ± 8360 | > 20000 | 
CC(C)C[C@H](N)CS [l-Leucinethiol] | 2.2 | 4380 ± 770 | 1950 ± 110 | 
O=C(O)/C=C/c1ccc(O)c(O)c1 [Caffeic Acid] |  |  |  | EC50 (SARS-CoV-2 3CLpro [1]; A) EC50 with Triton X-100): > 20000 nM; EC50 (SARS-CoV-2 3CLpro [1]; B) EC50 without Triton X-100): 5390 ± 1230 nM
N=c1c[n+](N2CCOCC2)[n-]o1 [3-Morpholinosydnonimine] | 1.1 | 5660 ± 445 | 4970 ± 2380 | 
R(−)-Propylnorapomorphine [R(−)-NPA] | 1.0 | 426 ± 17 | 426 ± 77 | 
C[N+](C)(C)CCC(=O)c1cccc2ccccc12 [alpha-NETA, 2-(alpha-Naphthoyl)ethyltrimethylammonium] | 0.9 | 227 ± 14 | 243 ± 51 | 
CN1CCc2c(cc(O)c(O)c2Cl)C(c2cccc(Cl)c2)C1 (centres unmarked) [SKF 83565] |  | > 20000 | 6030 ± 3630 | 
CC(C)N(CCC(=O)c1ccc2ccccc2c1)Cc1ccccc1 [ZM 39923] | 1.0 | 302 ± 38 | 289 ± 55 | 
Oc1cc(O)c2c(c1)O[C@H](c1ccc(O)c(O)c1)[C@@H](O)C2 [(+)-Catechin] |  | > 20000 | 11300 ± 6550 | 
C=CCN1CCc2cccc3c2[C@H]1Cc1ccc(O)c(O)c1-3 [R(−)-N-Allylnorapomorphine] |  | 346 ± 80 | 379 ± 83 | Ratio (A/B) (SARS-CoV-2 3CLpro [1]; [5]): 0.9
Oc1cc2c(c(Cl)c1O)CCNCC2c1ccccc1 (racemic) [(±)-6-Chloro-PB] | 1.4 | 1440 ± 353 | 1020 ± 289 | 
C=CCN1CCc2cc(O)c(O)cc2C(c2ccccc2)C1 (racemic) [N-allyl-(±)-SKF 38393] |  | 3340 ± 805 | 1650 ± 462 | 
O=C(N[C@@H](Cc1ccccc1)C(=O)CCl)OCc1ccccc1 [ZPCK, Z-L-Phe chloromethyl ketone] | 1.7 | 234 ± 85 | 136 ± 21 | EC50 (SARS-CoV-2 3CLpro [1]; [6]): 230 nM
Oc1ccc(C2CNCCc3c2cc(O)c(O)c3Cl)cc1 (centres unmarked) [Fenoldopam] |  | > 20000 | 7190 ± 6080 | 
CC(Cc1ccc(O)c(O)c1)C(C)Cc1ccc(O)c(O)c1 (centres unmarked) [Nordihydroguaiaretic acid] | 1.3 | 270 ± 58 | 214 ± 65 | 
NC1CCc2cc(O)c(O)cc2C1 (centres unmarked) [6,7-ADTN] | 1.1 | 2380 ± 257 | 2120 ± 727 | 

Compound | Ratio (A/B) (SARS-CoV-2 3CLpro [1]) | EC50 (SARS-CoV-2 3CLpro [1]; [3]) [nM] | EC50 (SARS-CoV-2 3CLpro [1]; [4]) [nM] | also measured
Cc1ccc(S(=O)(=O)N[C@@H](Cc2ccccc2)C(=O)CCl)cc1 [TPCK, Tosyl-L-Phe chloromethyl ketone] | 1.8 | 1740 ± 34 | 985 ± 175 | EC50 (SARS-CoV-2 3CLpro [1]; [6]): 1740 nM
CC(=O)[C@]1(O)Cc2c(O)c3c(c(O)c2[C@@H](O[C@H]2C[C@H](N)[C@H](O)[C@H](C)O2)C1)C(=O)c1ccccc1C3=O [Idarubicin] |  | > 20000 | > 20000 | 
Cc1ccc(S(=O)(=O)N[C@@H](CCCCN)C(=O)CCl)cc1 [TLCK, Tosyl-L-Lys chloromethyl ketone] |  | 10600 ± 881 | > 20000 | EC50 (SARS-CoV-2 3CLpro [1]; [6]): 10600 nM
N=C(N)NCCSSCCNC(=N)N [GED] |  | 5830 ± 664 | 3640 ± 2430 | Ratio (A/B) (SARS-CoV-2 3CLpro [1]; [5]): 1.6
NC[C@@H]1O[C@H](C23CC4CC(CC(C4)C2)C3)Cc2c1ccc(O)c2O [A-77636] | 1.6 |  |  | EC50 (SARS-CoV-2 3CLpro [1]; read-out: A) EC50 with Triton X-100): 3790 ± 630 nM; EC50 (SARS-CoV-2 3CLpro [1]; read-out: B) EC50 without Triton X-100): 2340 ± 783 nM
Oc1cc2c(cc1O)[C@H]1c3ccccc3CN[C@@H]1CC2 (racemic) [Dihydrexidine] | 1.1 | 705 ± 153 | 622 ± 72 | 
C=CCN1CCc2c(cc(O)c(O)c2Br)C(c2ccccc2)C1 (stereo not drawn) [R(+)-6-Bromo-APB] |  | > 20000 | > 20000 | 
CC(=O)[C@H]1CC[C@H]2[C@@H]3CC[C@H]4C[C@H](O)CC[C@]4(C)[C@H]3CC[C@]12C [5alpha-Pregnan-3alpha-ol-20-one] |  |  |  | mean (SARS-CoV-2 3CLpro [2]; sheet LOPAC_screen_w_protease, LOPAC1280 primary screen at 5 µM, with protease, mean of the two replicates): 0.7105; Replicate_1 (SARS-CoV-2 3CLpro [2]; sheet LOPAC_screen_w_protease, LOPAC1280 primary screen at 5 µM, with protease, replicate 1): 1.221; Replicate_2 (SARS-CoV-2 3CLpro [2]; sheet LOPAC_screen_w_protease, LOPAC1280 primary screen at 5 µM, with protease, replicate 2): 0.1995
CNc1ncnc2c1ncn2[C@H]1C[C@H](OP(=O)(O)O)[C@@H](COP(=O)(O)O)O1 [MRS 2179] |  |  |  | mean (SARS-CoV-2 3CLpro [2]; [7]): 4.143; Replicate_1 (SARS-CoV-2 3CLpro [2]; [8]): 4.368; Replicate_2 (SARS-CoV-2 3CLpro [2]; [9]): 3.917
NC(N)=NCCCCN=C(N)N [Arcaine sulfate] |  |  |  | inhibition at 5 µM (SARS-CoV-2 3CLpro [2]; sheet LOPAC_screen_w_protease, LOPAC1280 primary screen at 5 µM, with protease, mean of the two replicates, read-out: mean): 0.608%; inhibition at 5 µM (SARS-CoV-2 3CLpro [2]; sheet LOPAC_screen_w_protease, LOPAC1280 primary screen at 5 µM, with protease, replicate 1, read-out: Replicate_1): 1.59%; inhibition at 5 µM (SARS-CoV-2 3CLpro [2]; sheet LOPAC_screen_w_protease, LOPAC1280 primary screen at 5 µM, with protease, replicate 2, read-out: Replicate_2): -0.37%
CCN1CCC[C@H]1CNC(=O)c1cc(S(N)(=O)=O)ccc1OC [(-)-Sulpiride] |  |  |  | inhibition at 5 µM (SARS-CoV-2 3CLpro [2]; LOPAC1280 primary screen with protease, 5 µM compound, replicate 1, read-out: Replicate_1 (LOPAC_screen_w_protease)): 0.997%; mean (LOPAC_screen_w_protease) (SARS-CoV-2 3CLpro [2]; [10]): 1.652
CN(C)CCC=C1c2ccccc2C=Cc2ccccc21 [Cyclobenzaprine hydrochloride] |  |  |  | mean (LOPAC_screen_w_protease) (SARS-CoV-2 3CLpro [2]): 2.047; inhibition at 5 µM (SARS-CoV-2 3CLpro [2]; read-out: Replicate_1 (LOPAC_screen_w_protease)): 3.03%; inhibition at 5 µM (SARS-CoV-2 3CLpro [2]; read-out: Replicate_2 (LOPAC_screen_w_protease)): 1.06%
Br.CCCN(CCC)C1CCc2ccc(O)cc2C1 (racemic) [(±)-7-Hydroxy-DPAT hydrobromide] |  |  |  | mean (LOPAC_screen_w_protease) (SARS-CoV-2 3CLpro [2]; [10]): 1.681; Replicate_1 (LOPAC_screen_w_protease) (SARS-CoV-2 3CLpro [2]; LOPAC1280 primary screen with protease, 5 µM compound, replicate 1): 3.951; Replicate_2 (LOPAC_screen_w_protease) (SARS-CoV-2 3CLpro [2]; LOPAC1280 primary screen with protease, 5 µM compound, replicate 2): -0.5891
CN1C[C@@H](NS(=O)(=O)N(C)C)C[C@@H]2c3cccc4c3c(cn4C)C[C@H]21 [Mesulergine hydrochloride] |  |  |  | inhibition at 5 µM (SARS-CoV-2 3CLpro [2]; sheet LOPAC_screen_w_protease, LOPAC1280 primary screen with protease, 5 µM compound, mean of the two replicates, read-out: mean): 5.36%; inhibition at 5 µM (SARS-CoV-2 3CLpro [2]; sheet LOPAC_screen_w_protease, LOPAC1280 primary screen with protease, 5 µM compound, replicate 1, read-out: Replicate_1): 4.85%; inhibition at 5 µM (SARS-CoV-2 3CLpro [2]; sheet LOPAC_screen_w_protease, LOPAC1280 primary screen with protease, 5 µM compound, replicate 2, read-out: Replicate_2): 5.86%
COc1cc(CC(=O)O)ccc1O [4-Hydroxy-3-methoxyphenylacetic acid] |  |  |  | mean (SARS-CoV-2 3CLpro [2]; sheet LOPAC_screen_w_protease, primary screen with protease, 5 µM, mean of two replicates): 0.06748; Replicate_1 (SARS-CoV-2 3CLpro [2]; sheet LOPAC_screen_w_protease, primary screen with protease, 5 µM, replicate 1): 3.737; Replicate_2 (SARS-CoV-2 3CLpro [2]; sheet LOPAC_screen_w_protease, primary screen with protease, 5 µM, replicate 2): -3.602
COc1cc(C(O)C(=O)O)ccc1O (racemic) [(±)-Vanillylmandelic acid] |  |  |  | mean (SARS-CoV-2 3CLpro [2]; sheet LOPAC_screen_w_protease, LOPAC1280 at 5 µM, mean of two replicates): 1.1; Replicate_1 (SARS-CoV-2 3CLpro [2]; sheet LOPAC_screen_w_protease, LOPAC1280 at 5 µM, replicate 1): 2.648; Replicate_2 (SARS-CoV-2 3CLpro [2]; sheet LOPAC_screen_w_protease, LOPAC1280 at 5 µM, replicate 2): -0.449
Br.CN1CCc2c(cc(O)c(O)c2Cl)C(c2cccc(Cl)c2)C1 (centres unmarked) [SKF 83565 hydrobromide] |  |  |  | mean (LOPAC screen with protease) (SARS-CoV-2 3CLpro [2]; sheet LOPAC_screen_w_protease, primary screen at 5 µM, mean of two replicates): 22.1474; Replicate_1 (LOPAC screen with protease) (SARS-CoV-2 3CLpro [2]; sheet LOPAC_screen_w_protease, primary screen at 5 µM, replicate 1): 23.5852; Replicate_2 (LOPAC screen with protease) (SARS-CoV-2 3CLpro [2]; sheet LOPAC_screen_w_protease, primary screen at 5 µM, replicate 2): 20.7095
Cl.Cl.Cl.Ic1ccc(N2CCN(Cc3c[nH]c4ncccc34)CC2)cc1 [L-750,667 trihydrochloride] |  |  |  | mean (SARS-CoV-2 3CLpro [2]; [7]): 4.601; Replicate_1 (SARS-CoV-2 3CLpro [2]; [8]): 3.085; Replicate_2 (SARS-CoV-2 3CLpro [2]; [9]): 6.117
